Laboratory results from ChEMBL document CHEMBL1130625, “Synthesis and antibacterial activity of novel 7-(3-substituted-3 or 4-trifluoromethyl-1-pyrrolidinyl)-8-methoxyfluoroquinolones” (1998).
Values after ≈ are worked out from the molar mass of the structure shown.

Tests used:
[1] = test system: Staphylococcus aureus; assay: Compound was tested for antibacterial activity against gram positive Staphylococcus aureus JS-1; type: functional
[2] = test system: Escherichia coli; assay: Compound was tested for antibacterial activity against gram negative Escherichia coli CSH2/RK1; type: functional; settings: Escherichia coli; read-out: MIC
[3] = test system: Streptococcus pyogenes; assay: Compound was tested for antibacterial activity against gram positive Streptococcus pyogenes cook; settings: Streptococcus pyogenes; read-out: MIC
[4] = test system: Escherichia coli; assay: Compound was tested for antibacterial activity against gram negative Escherichia coli NIHJ JC-2; type: functional
[5] = test system: Pseudomonas aeruginosa; assay: Compound was tested for antibacterial activity against gram negative Pseudomonas aeruginosa AK109; type: functional; settings: Pseudomonas aeruginosa; read-out: MIC
[6] = test system: Proteus mirabilis; assay: Compound was tested for antibacterial activity against gram negative Proteus mirabilis JY-10; type: functional; settings: Proteus mirabilis; read-out: MIC
[7] = test system: Staphylococcus aureus; assay: Compound was tested for antibacterial activity against gram positive Staphylococcus aureus FDA 209P JC-1; type: functional; settings: Staphylococcus aureus; read-out: MIC
[8] = test system: Serratia marcescens; assay: Compound was tested for antibacterial activity against gram negative Serratia marcescens No.16-2; type: functional; settings: Serratia marcescens; read-out: MIC
[9] = test system: Klebsiella pneumoniae; assay: Compound was tested for antibacterial activity against gram negative Klebsiella pneumoniae KC-1; type: functional; settings: Klebsiella pneumoniae; read-out: MIC
[10] = test system: Staphylococcus aureus; assay: Compound was tested for antibacterial activity against gram positive Staphylococcus aureus smith; type: functional
[11] = test system: Klebsiella pneumoniae; assay: Compound was tested for antibacterial activity against gram negative Klebsiella pneumoniae No.42; type: functional; settings: Klebsiella pneumoniae; read-out: MIC
[12] = test system: Proteus vulgaris; assay: Compound was tested for antibacterial activity against gram negative Proteus vulgaris No.33; type: functional; settings: Proteus vulgaris; read-out: MIC
[13] = test system: Acinetobacter calcoaceticus; assay: Compound was tested for antibacterial activity against gram negative Acinetobacter calcoaceticus No.4; type: functional; settings: Acinetobacter calcoaceticus; read-out: MIC
[14] = test system: Pseudomonas aeruginosa; assay: Compound was tested for antibacterial activity against gram negative Pseudomonas aeruginosa PAO1; type: functional; settings: Pseudomonas aeruginosa; read-out: MIC
[15] = test system: Escherichia coli; assay: Compound was tested for antibacterial activity against gram negative Escherichia coli ML4707; type: functional; settings: Escherichia coli; read-out: MIC
[16] = test system: Escherichia coli; assay: Compound was tested for antibacterial activity against gram negative Escherichia coli CSH2/RE45; type: functional; settings: Escherichia coli; read-out: MIC
[17] = test system: Citrobacter freundii; assay: Compound was tested for antibacterial activity against gram negative Citrobacter freundii KP-29; type: functional; settings: Citrobacter freundii; read-out: MIC
[18] = test system: Citrobacter freundii; assay: Compound was tested for antibacterial activity against gram negative Citrobacter freundii No.7; type: functional; settings: Citrobacter freundii; read-out: MIC
[19] = test system: Klebsiella oxytoca; assay: Compound was tested for antibacterial activity against gram negative Klebsiella oxytoca GN 10650; type: functional; settings: Klebsiella oxytoca; read-out: MIC
[20] = test system: Burkholderia cepacia; assay: Compound was tested for antibacterial activity against gram negative Burkholderia cepacia 23; type: functional; settings: Burkholderia cepacia; read-out: MIC
[21] = test system: Proteus vulgaris; assay: Compound was tested for antibacterial activity against gram negative Proteus vulgaris KS-134; type: functional; settings: Proteus vulgaris; read-out: MIC
[22] = test system: Enterobacter cloacae; assay: Compound was tested for antibacterial activity against gram negative Enterobacter cloacae Nek39; type: functional; settings: Enterobacter cloacae; read-out: MIC
[23] = test system: Pseudomonas aeruginosa; assay: Compound was tested for antibacterial activity against gram negative Pseudomonas aeruginosa KP-254; type: functional; settings: Pseudomonas aeruginosa; read-out: MIC
[24] = test system: Enterococcus faecalis; assay: Compound was tested for antibacterial activity against gram positive Enterococcus faecalis 1373; type: functional; settings: Enterococcus faecalis; read-out: MIC
[25] = test system: Staphylococcus aureus; assay: Compound was tested for antibacterial activity against gram positive Staphylococcus aureus KP-90-3; type: functional; settings: Staphylococcus aureus; read-out: MIC
[26] = test system: Pseudomonas aeruginosa; assay: Compound was tested for antibacterial activity against gram negative Pseudomonas aeruginosa K-13; type: functional; settings: Pseudomonas aeruginosa; read-out: MIC
[27] = Staphylococcus aureus, read-out: MIC
[28] = Escherichia coli, read-out: MIC

Row | Compound | MIC [2] | MIC [3] | MIC [5] | MIC [6] | MIC [7] | MIC [8] | MIC [9] | MIC [10] | MIC [11] | MIC [12] | MIC [13] | MIC [14] | MIC [15] | MIC [16] | MIC [17] | MIC [18] | MIC [19] | MIC [20] | MIC [21] | MIC [22] | also measured
1 | COc1c(N2CC[C@@](CN)(C(F)(F)F)C2)c(F)cc2c(=O)c(C(=O)O)cn(C3CC3)c12.Cl | > 12.5 µg/mL | 0.78 µg/mL | > 12.5 µg/mL | 0.78 µg/mL | 0.2 µg/mL | > 12.5 µg/mL | 1.56 µg/mL | 0.05 µg/mL | 6.25 µg/mL | 3.13 µg/mL | 1.56 µg/mL | > 12.5 µg/mL | 0.05 µg/mL | > 12.5 µg/mL | > 12.5 µg/mL | > 12.5 µg/mL | 6.25 µg/mL | 3.13 µg/mL | > 12.5 µg/mL | 12.5 µg/mL | MIC [1, 27]: 0.1 µg/mL; MIC [4, 28]: 3.13 µg/mL; MIC [23]: > 12.5 µg/mL; MIC [24]: 0.78 µg/mL; MIC [25]: 6.25 µg/mL; MIC [26]: > 12.5 µg/mL
2 | NC1CCN(c2nc3c(cc2F)c(=O)c(C(=O)O)cn3-c2ccc(F)cc2F)C1 (stereo not drawn) [TOSUFLOXACIN] | 0.39 µg/mL (≈ 0.965 µM) | 0.1 µg/mL (≈ 0.247 µM) | 0.39 µg/mL (≈ 0.965 µM) | 0.05 µg/mL (≈ 0.124 µM) | 0.05 µg/mL (≈ 0.124 µM) | 0.39 µg/mL (≈ 0.965 µM) | 0.025 µg/mL (≈ 0.0618 µM) | 0.025 µg/mL (≈ 0.0618 µM) | 0.025 µg/mL (≈ 0.0618 µM) | 0.05 µg/mL (≈ 0.124 µM) | 0.025 µg/mL (≈ 0.0618 µM) | 0.39 µg/mL (≈ 0.965 µM) | 0.013 µg/mL (≈ 0.0322 µM) | 0.39 µg/mL (≈ 0.965 µM) | > 12.5 µg/mL | 0.39 µg/mL (≈ 0.965 µM) | 0.05 µg/mL (≈ 0.124 µM) | 0.78 µg/mL (≈ 1.93 µM) | > 12.5 µg/mL | 0.2 µg/mL (≈ 0.495 µM) | MIC [1, 27]: 0.05 µg/mL (≈ 0.124 µM); MIC [4, 28]: 0.05 µg/mL (≈ 0.124 µM); MIC [23]: > 12.5 µg/mL; MIC [24]: 0.2 µg/mL (≈ 0.495 µM); MIC [25]: 12.5 µg/mL (≈ 30.9 µM); MIC [26]: 6.25 µg/mL (≈ 15.5 µM)
3 | COc1c(N2C[C@@H](CN)[C@H](C(F)(F)F)C2)c(F)cc2c(=O)c(C(=O)O)cn(C3CC3)c12.Cl (racemic) | 0.78 µg/mL | 0.025 µg/mL | 1.56 µg/mL | 0.1 µg/mL | 0.025 µg/mL | 0.39 µg/mL | 0.05 µg/mL | ≤ 0.006 µg/mL | 0.2 µg/mL | 0.1 µg/mL | 0.1 µg/mL | 1.56 µg/mL | 0.05 µg/mL | 0.78 µg/mL | 25 µg/mL | 0.78 µg/mL | 0.1 µg/mL | 1.56 µg/mL | 50 µg/mL | 0.39 µg/mL | MIC [1]: 0.013 µg/mL; MIC [4]: 0.1 µg/mL; MIC [23]: 100 µg/mL; MIC [24]: 0.05 µg/mL; MIC [25]: 0.39 µg/mL; MIC [26]: 12.5 µg/mL
